Test results reported in patent US6924288B2, “Enantiomerically pure opioid diarylmethylpiperzine and methods of using same” (priority 2001, dated 2005).

Test system: rats
Test: Tail pinch test for analgesia in rats
Type: in vivo
Settings: rat, i.v., tail pinch, FIGS. 1-6
Description: Analgesia was assayed in rats using the tail pinch test with simultaneous monitoring of capillary blood gases (pCO2). During this testing period respiratory depression values were also obtained. Male rats (Wistar Hannover 200-300 g) were anesthetized with 2% isoflurane (J. A. Webster, Inc., Sterling, Mass. The femoral artery was cannulated with PE50 tubing for blood sampling. The external jugular vein was also cannulated with Silastic tubing for drug injection. After surgery, anesthetic gases were removed and the rat was allowed to rest in a plastic restrainer for 60 minutes to establish baseline values of blood gases.
The compounds 1-6 were administered intravenous. Nociceptive response and respiratory values were obtained for a 1-2 hour period. The femoral artery cannulation was used to draw arterial blood into a syringe pre-wetted with heparin. Samples were then analyzed with a blood gas analyzer (Ph/Gas Analyzer Synthesis 25 Model, Instrumentation Laboratory) to assess respiratory depression effects. The volume of blood taken each time was 0.15 cc. The syringes were capped immediately and the blood gases analyzed within 5 minutes. The blood exposed to air at the tip of the syringe was expelled. The blood was mixed by gentle inversion and an aliquots of 0.10 cc was injected into the blood gas analyzer.
An artery clamp was placed on the tail (one inch from the tip of the tail) for a short duration until an escape response occurred (i.e. tail-flick or vocalization). The escape response latency was recorded by means of a stopwatch. A cutoff time of 20 sec. was used to prevent unnecessary tissue damage. […] The elapsed time to elicit a pain response was recorded as the tail pinch latency in seconds. Blood gases were monitored at approximately the same time points as the tail pinch test.
The ED50 values for analgesia potency and respiratory depression were determined to calculate the safety or therapeutic ratio, which is defined as the respiratory depression ED50 divided by analgesia ED50.

With C=CCN1C[C@@H](C)N([C@@H](c2ccsc2)c2cccc(O)c2)C[C@@H]1C (relative stereo) [Compound 1, (±)3-((R*)-((2R*,5S*)-4-allyl-2,5-dimethyl-1-piperazinyl)(3-thienyl)methyl)phenol] the “Analgesic effect in words” value was “only limited analgesia for a short time”.
